Measured values from US10822317B2, “Methods and compositions for wound healing” (QBiotics Limited, priority 2013, dated 2020).

How the values were obtained:
HaCaT cells = assay: HaCaT scratch repopulation with Mitomycin C (migration study); assay type: cell-based, human; conditions: with 1 μg/mL Mitomycin C; 0.001 to 1.0 μg/mL; p<0.05
[1] = system: human neonatal fibroblast cells (NFFs); assay: Western blot of signalling molecules in human neonatal fibroblasts; assay type: cell-based; conditions: 10 or 30 ng/mL
Protocol: The Western Blot method was used to identify effects of Compounds 1 and 42 on proteins relevant to would repair and healing in human neonatal fibroblast cells (NFFs). Two studies were conducted. In the first study; NFFs were treated with either 10 or 30 ng Compound 1/mL for 6 or 24 hours, before harvesting and protein extraction. In the second study NFFs were treated individually with 30 ng/mL concentrations of Compounds 1 and 42 respectively for 6 hours. The resulting lysates from both studies were subjected to western blot analysis, and probing with specific antibodies to key signalling molecules involved in wound repair and healing.
The medium from adherent human neonatal fibroblasts grown in 75 cm^2 plates was removed and the cells were washed twice in ice cold PBS. The attached cells were harvested in 10 mL of ice cold PBS using a cell scraper (Costar, Corning) pelleted by centrifugation for 5 min (1,500 rpm, RTemp), resuspended in 1 mL of ice-cold PBS, and transferred to a 1.5 mL microfuge tube.
The cells were collected by centrifugation (13,200 rpm, RTemp, 2 s), the PBS removed and the pellets stored at −20° C. until required.
The frozen pellets were thawed on ice, and resuspended in a volume of cell lysis buffer 3-4 times the volume of the pellet by pipetting up and down. The cell suspension was sonicated 60 s at 4° C. and centrifuged for 20 min (13,200 rpm, 4° C.) and the […] containing the protein transferred to a fresh 1.5 ml microfuge tube. The protein was stored at −20° C.
Protein samples were diluted 1/10 and 1/20 (v/v) in MilliQ water and 10 μL was plated out in duplicate in. a flat-bottomed 96-well plate (Costar®, Corning). Stock solutions of bovine serum albumin (BSA) were prepared at 100, 200, 400, 600, 1,000, and 1,200 μg/mL and 10 μL/well plated out in duplicate and assayed alongside the samples. […] The raw absorbances were read at A590 nm on a microplate reader (VERSAmax, Molecular Devices) and a standard curve produced using SOFTmax PRO software (Molecular Devices). […]

[2] = system: immortalised human keratinocyte cells (HaCaT); assay: Scratch repopulation and closure with HaCaT; assay type: cell-based; conditions: 48 hours, ± standard error
Protocol: The ability of immortalised human keratinocyte cells (HaCaT) to migrate across a scratch wound made in a confluent monolayer following treatment with either Compound 1 or Compound 37 was determined by the following method.
Trypsinised HaCaT cells were seeded at a cell density of 7.4×10^4 cells/mL in 24-well BD Falcon flat-bottomed, tissue culture plates (VWR International, UK) in 1 mL Dulbecco's Modified Eagle Medium (DMEM), supplemented with L-glutamine (2 mM), antibiotics (100 U/mL penicillin G sodium, 100 μg/mL streptomycin sulphate and 0.25 μg/mL amphotericin B); and 10% foetal calf serum (all Invitrogen Ltd., UK) to give a cell density of 7.4×10^4 cells seeded in each well. The cells were then maintained at 37° C. in a 5% CO2/95% air atmosphere overnight. The following morning, the 10% foetal calf serum-containing DMEM was replaced with serum-free DMEM and the HaCaT cells were subsequently serum-starved in DMEM for 48 hr.
After 48 hr, the serum-free DMEM was removed and a single scratch ‘wound’ made with a sterile pipette across each cell layer. Following washing twice in 1 mL PBS, Compound 1- or Compound 37-containing medium (1 mL) was added to each well. This medium consisted of DMEM, supplemented with L-glutamine (2 mM), antibiotics (as above) and 1% foetal calf serum, in addition to Compound 1 or Compound 37 at final concentrations of 0, 0.001, 0.01, 0.1, 1.0, 10 or 100 μg/mL. There were three replicate wells per concentration for each compound.
The HaCaT cultures were maintained at 37° C. in a 5% CO2/95% air atmosphere and the repopulation of the denuded ‘wound’ areas monitored by Time-Lapse Confocal Microscopy (Leica TCS SP5 Confocal Microscope; Leica Microsystems UK Ltd., UK) at 100× magnification, with digital images captured at fixed positions every 20 min over a 48 h period. The digital image sequences were exported and prepared as .avi movie files, using LAS AF Software (Leica Microsystems). The rates of HaCaT wound closure in vitro were quantified using ImageJ Software (ImageJ 1.37v; http://rsb.info.nih.gov/ij/). The data was analysed by One Way Analysis of Variance with post-test Tukey analysis. Each experiment was performed on 3 separate occasions.

For CC=C(C)C(=O)OC1C(C)C2(O)C(C3OC3(CO)C(O)C3(O)C(=O)C(C)=CC32)C2C(C)(C)C12OC(=O)C(C)CC (stereo not drawn) [Compound 1, 12-tigloyl-13-(2-methylbutanoyl)-6,7-epoxy-4,5,9,12,13,20-hexahydroxy-1-tigliaen-3-one], the “scratch repopulation and closure (migration study)” value (HaCaT cells) was “enhanced”, the “levels of MMP9 (Western blot)” value ([1]; 6 or 24 hours) was “No difference” and the “activation of MEK1/2 and ERK/2 (Western blot)” value ([1]; 6 hours) was “transient activation”. For the same compound, the “activation of MEK1/2 and ERK/2 (Western blot)” value ([1]; 24 hours) was “down-regulation of activation”, the “% of scratch wound area remaining open after treatment” value ([2]; 0.001 μg/ml) was 8.6 ± 9.4% and the “% of scratch wound area remaining open after treatment” value ([2]; 0.01 μg/ml) was 19.7 ± 9.3%. The “% of scratch wound area remaining open after treatment” value ([2]; 0.1 μg/ml) was 21.4 ± 5.8%, the “% of scratch wound area remaining open after treatment” value ([2]; 1.0 μg/ml) was 35.4 ± 7.9% and the “% of scratch wound area remaining open after treatment” value ([2]; 10 μg/ml) was 45.5 ± 7.3%.
